Results from patent publication US20240270692A1, “S(+) FORM OF 4-(2,4-DIFLUOROPHENYL)-2-(1H-INDOL-3-YL)-4-OXO-BUTANOIC ACID” (TOHOKU UNIVERSITY, priority 2021, published 2024).
“Also recorded” adds a separate entry of the source.

Experiments:
MT-ND3 mutant cell line = experiment: Evaluation of ability to produce ATP in animal cells; format: cell-based, human; conditions: 0.1 μM or 1 μM, cultured 6 hours, S(+) form versus R(−) form
Description: Hereinafter, the present invention will be described more specifically with reference to Examples, but the technical scope of the present invention is not limited to these Examples. The INS-1E cell line was cultured in an incubator (37° C., 21% O2, 5% CO2) in the presence of RPMI-1640 Medium (manufactured by GIBCO) containing 11.1 mM glucose, 10% FBS, 1 mM sodium pyruvate, 10 mM HEPES, 2 mM glutamine, 50 μM β-mercaptoethanol, penicillin at 100 U/mL, and streptomycin at 100 μg/mL (hereinafter simply referred to as “RPMI-1640 Medium”). […]
An MT-ND3 mutant cell line was seeded in a 96-well plate at 2×10^3 cells per well and cultured for 24 hours in the presence of DMEM Low Glucose culture medium, then 0.1% DMSO, which is a solvent for the compounds, or various concentrations (0.1 μM or 1 μM) of three compounds (racemic form of MA5, S(+) form of MA5, or R(−) form of MA5) were added, and the cells were cultured for 6 hours, and then the concentration of ATP produced in the culture medium was measured with GloMa 96 Microplate Luminometer (Promega Corporation) by using a “cellular” ATP measurement reagent (manufactured by TOYO B-Net Co., Ltd.).

[1] = In vivo administration test 2: oral administration, plasma concentrations; conditions: male cynomolgus monkeys, single dose 100 mg/kg
Description: Each enantiomer (S(+) form or R(−) form) of MA5 was dissolved in a mixed solution of physiological saline and 0.1 N sodium hydroxide (9:1), and filtered and sterilized by using a 0.22 μm filter to prepare a solution containing 2 mL/kg of each enantiomer of MA5. Next, the solution containing each enantiomer of MA5 was intravenously administered to each of three 4- to 5-year-old male cynomolgus monkeys at a single dose of 1 mg/kg. As a control, a solution containing no enantiomer of MA5 was also administered in the same manner. […] The analysis conditions for LC-MS/MS are as follows.
As an ionization unit, an apparatus in which NANOSPACESI-2 (manufactured by OSAKA SODA CO., LTD.) as a high-performance liquid chromatograph was connected to a triple quadrupole mass spectrometer (TSQ Quantum Ultra, manufactured by Thermo Fisher Scientific Inc.) equipped with an ESI probe was used. The S(+) form of MA5 (S-(+)-MA5) and the R(−) form of MA5 (R-(−)-MA5), which are substances to be analyzed, were subjected to quantitative analysis by the internal standard method using their respective stable isotopes S-(+)-MA5-d6 and R-(−)-MA5-d6. […]
The MS conditions were detected in negative ion mode, a spray voltage set to 2.5 kV, a vaporizer temperature set to 250° C., and an ion transfer tube temperature set to 250° C. […] Waveform analysis and quantitative calculation by the internal standard method were carried out by using Xcalibur (manufactured by Thermo Fisher Scientific Inc.).
In “3. […] Specifically, according to the method described in “3-1 Method” above, a solution containing each enantiomer (S(+) form or R(−) form) of MA5 was orally administered to male cynomolgus monkeys at a single dose of 100 mg/kg, the concentration of each enantiomer of MA5 and the concentration of a reduced metabolite of each enantiomer of MA5 (the compound represented by formula (B) [that is, Red-MA5]) in plasma were measured.

[2] = test system: Rat fetal cardiomyoblast cells H9c2; experiment: Effect of suppressing DNA damage caused by camptothecin (γH2AX immunostaining); format: cell-based; conditions: camptothecin 10 μM plus compound 30 μM, cultured 24 hours
Description: Rat fetal cardiomyoblast cells H9c2 were maintained and cultured in a DMEM medium (10% FBS, penicillin at 100 units/mL, streptomycin at 100 μg/mL). Camptothecin (CPT) at a final concentration of 10 μM, CPT at a final concentration of 10 μM, and MA5 (racemic form, S(+) form, or R(−) form) at a final concentration of 30 μM, or DMSO (control) were added. The cells were cultured for 24 hours, then the medium was removed, and γH2AX (phosphorylated H2AX), which is an indicator for DNA damage, was detected by immunostaining. The immunostaining was carried out by using a mouse anti-γH2AX antibody (Thermo Fisher) as a primary antibody and a CF568-labeled goat anti-mouse IgG antibody (Biotium Inc.) as a secondary antibody.

O=C(C[C@@H](C(=O)O)c1c[nH]c2ccccc12)c1ccc(F)cc1F [R(−) form of MA5, 4-(2,4-difluorophenyl)-2-(1H-indol-3-yl)-4-oxo-butanoic acid]
level of ATP production (MT-ND3 mutant cell line): No difference was observed | reduced metabolite (Red-MA5) in plasma [1]: detected | fluorescence intensity of γH2AX (phosphorylated H2AX) [2]: not observed

O=C(C[C@H](C(=O)O)c1c[nH]c2ccccc12)c1ccc(F)cc1F [S(+) form of MA5, 4-(2,4-difluorophenyl)-2-(1H-indol-3-yl)-4-oxo-butanoic acid]
level of ATP production (MT-ND3 mutant cell line): No difference was observed | concentration in plasma after oral administration [1]: higher than that of the R(−) form of MA5 in plasma | reduced metabolite (Red-MA5) in plasma [1]: almost no reduced metabolite was detected | fluorescence intensity of γH2AX (phosphorylated H2AX) [2]: a decrease in the fluorescence intensity of phosphorylated H2AX was observed; also recorded: the level of γH2AX was low
